Assay results from ChEMBL document CHEMBL2440106, “Cloning, characterization, and inhibition studies of a β-carbonic anhydrase from Leishmania donovani chagasi, the protozoan parasite responsible for leishmaniasis” (J Med Chem, 2013).
≈ marks a conversion by molar mass, not a printed value. Calls of active or inactive are those of the source. The rule behind the calls is not given here.

Tests used:
Leishmania chagasi [1] = assay: Antileishmanial activity against promastigote form of Leishmania chagasi MHOM/BR/1974/PP75 assessed as parasite growth inhibition at 256 uM after 120 hrs by resazurin dye-based assay relative to control; assay type: functional; conditions: MHOM/BR/1974/PP75, 120 h, read-out: GI
Leishmania amazonensis [2] = assay: Antileishmanial activity against promastigote form of Leishmania amazonensis MHOM/BR/76/Ma-5 assessed as parasite growth inhibition at 256 uM after 120 hrs by resazurin dye-based assay relative to control; assay type: functional; conditions: MHOM/BR/76/Ma-5, 120 h, read-out: GI
Leishmania chagasi [3] = assay: Antileishmanial activity against promastigote form of Leishmania chagasi MHOM/BR/1974/PP75 assessed as parasite growth inhibition at 128 uM after 120 hrs by resazurin dye-based assay relative to control; assay type: functional; conditions: MHOM/BR/1974/PP75, 120 h, read-out: GI
Leishmania chagasi [4] = assay: Antileishmanial activity against promastigote form of Leishmania chagasi assessed as appearance of many number of vacuoles in cytoplasm at 256 uM after 24 hrs by transmission electron microscopic analysis; assay type: functional, organism-based
Leishmania chagasi [5] = assay: Antileishmanial activity against promastigote form of Leishmania chagasi assessed as accumulation of intracytoplasmic electron-dense granules at 256 uM after 24 hrs by transmission electron microscopic analysis; assay type: functional, organism-based
Leishmania amazonensis [6] = assay: Antileishmanial activity against promastigote form of Leishmania amazonensis MHOM/BR/76/Ma-5 assessed as parasite growth inhibition at 128 uM after 120 hrs by resazurin dye-based assay relative to control; assay type: functional; conditions: MHOM/BR/76/Ma-5, 120 h, read-out: GI
Leishmania chagasi [7] = assay: Antileishmanial activity against promastigote form of Leishmania chagasi assessed as marked swelling of vacuoles at 256 uM after 24 hrs by transmission electron microscopic analysis; assay type: functional, organism-based
Leishmania chagasi [8] = assay: Antileishmanial activity against promastigote form of Leishmania chagasi assessed as appearance of autophagic vacuoles at 256 uM after 24 hrs by transmission electron microscopic analysis; assay type: functional, organism-based
Leishmania amazonensis [9] = assay: Antileishmanial activity against promastigote form of Leishmania amazonensis MHOM/BR/76/Ma-5 assessed as parasite growth inhibition after 120 hrs by resazurin dye-based assay; assay type: functional; conditions: MHOM/BR/76/Ma-5, 120 h
Leishmania chagasi [10] = assay: Antileishmanial activity against promastigote form of Leishmania chagasi MHOM/BR/1974/PP75 assessed as parasite growth inhibition after 120 hrs by resazurin dye-based assay; assay type: functional; conditions: MHOM/BR/1974/PP75, 120 h

SMILES	inhibition of growth at 256 µM (Leishmania chagasi [1]) [%]	inhibition of growth at 256 µM (Leishmania amazonensis [2]) [%]	further results
O=C(N/N=C1\C(=O)Nc2ccc(Br)cc21)Nc1n[nH]c(=S)s1	0	0	
COc1cccc(/C=N\NC(=O)Nc2nnc(S)s2)c1	32.2	76.4	
C/C(=N/NC(=O)Nc1nnc(S)s1)c1ccc(Cl)cc1	0	7	
O=C(N/N=C\c1ccccc1)Nc1nnc(S)s1	36.3	45.8	
C/C(CC(C)C)=N/NC(=O)Nc1nnc(S)s1	74.8	91.9	
O=C(N/N=C1\C(=O)Nc2ccccc21)Nc1n[nH]c(=S)s1	0	0	
O=C(N/N=C\c1cccc(Br)c1)Nc1nnc(S)s1	100	97	inhibition of growth at 128 µM (Leishmania chagasi [3]): 30%; Activity (Leishmania chagasi [4]): Active; Activity (Leishmania chagasi [5]): Active; inhibition of growth at 128 µM (Leishmania amazonensis [6]): 28%; Activity (Leishmania chagasi [7]): Active; Activity (Leishmania chagasi [8]): Active; MIC (Leishmania amazonensis [9]): 256 µM (≈ 91.7 µg/mL); MIC (Leishmania chagasi [10]): 256 µM (≈ 91.7 µg/mL)
O=C(N/N=C\c1ccc(Cl)cc1)Nc1nnc(S)s1	51.5	62.3	
O=C(N/N=C\c1ccc(F)cc1)Nc1nnc(S)s1	18	56	
